Test results as given in US8604217B2, “Compound, a process for its preparation, a pharmaceutical composition, use of a compound, a method for modulating or regulating serine/threonine kinases and a serine/threonine kinases modulating agent” (Selvita S.A., priority 2009, dated 2013).

Experiments:
PIM-1 = PIM-1 (Homo sapiens (Human), UniProt P11309); assay: Luminometric kinase assay for PIM1 kinase (Kinase-Glo); format: biochemical; conditions: 1 μM ATP, 25 min at RT
Procedure: Kinase assay was performed using luminescent Kinase-Glo® (Promega) system. The Kinase-Glo® Luminescent Kinase Assay Platform provides a homogeneous, high-throughput screening method for measuring kinase activity by quantifying the amount of ATP remaining in solution following a kinase reaction. The luminescent signal is correlated with the amount of ATP present and is inversely correlated with the kinase activity. Appropriate amounts of both kinase and substrate were mixed in 96-well, white wall plate in the reaction buffer (8 mM MOPS/NaOH, pH7.0, 0.2 mM EDTA, 2 mM MgCl2). Tested compounds were diluted in DMSO and serial dilutions starting with 1 μM were added to the palates. Reaction was initiated by adding 1 μM of ATP solution and conducted for 25 min. at RT. Luminescent signal was detected by adding Kinase-Glo® reagent and measured using a microplate spectrophotometer (Synergy 2 multi-mode microplate reader (BioTek)). IC50 values were obtained by fitting sigmoidal dose-response curve (variable slope) using GraphPad Prism software.

[1] = test system: human myelomonocytic, biphenotypic leukemia MV4-11 cells; assay: Growth inhibition test (MTS) on MV4-11 cells; format: cell-based; conditions: Homo sapiens, MV4-11, 72 hours, read-out: MV-4-11 ED50
Procedure: (§1) Ten thousand cells of human myelomonocytic, biphenotypic leukemia MV4-11 were inoculated into each well of a 96-well microplate (manufactured by Corning Corp.) using Iscove's MDM medium (culture medium) containing 10% fetal calf serum (FCS). Next day, a dimethyl sulfoxide (DMSO) solution of each test compound prepared in a concentration of 10 mmol/L was further diluted with culture medium to the desired concentrations (0.1, 0.5, 1, 2.5, 5 and 10 micromol/L), and the diluted solution was added to each well. The individual wells were further cultured in 5% carbon dioxide at 37° C. for 72 hours. After completion of the culture, 10 μl MTS (3-(4,5-Dimethyl-2-thiazolyl)-5-(carboxymethoxyphenyl)-2-(4-sulfophenyl)-2H-tetrazolium, inner salt assay (CellTiter96® AQueous One Solution Cell Proliferation Assay, Promega) was added to each well, and culturing was performed in 5% carbon dioxide at 37° C. for 2 hours. Using a microplate spectrophotometer (Synergy 2 multi-mode microplate reader (BioTek)), the absorbance of each well was measured at 490 nm. The value for cells not incorporated with a test compound was designated as 100%. By comparing these values with the absorbance difference obtained at the well in which each test compound was added, the cell viability (% viability) after treatment with the test compound was calculated.

[2] = test system: human hepatoma HepG2 cells; assay: Growth inhibition test (MTS) on HepG2 cells; format: cell-based; conditions: 72 hours, read-out: HepG2 ED50
Procedure: as §1, with “Two” for “Ten”, “hepatoma HepG2” for “myelomonocytic, biphenotypic leukemia MV4-11”, “DMEM” for “Iscove's MDM”

[3] = test system: human prostate adenocarcinoma PC3 cells; assay: Growth inhibition test (MTS) on PC3 cells; format: cell-based; conditions: Homo sapiens, PC-3, 72 hours, read-out: PC-3 ED50
Text: as §1, with “Two” for “Ten”, “prostate adenocarcinoma PC3” for “myelomonocytic, biphenotypic leukemia MV4-11”, “Corp.), and” for “Corp.)”, “F12K (Ham's F12:[…] 1:1)” for “Iscove's MDM”

[4] = test system: human breast adenocarcinoma MCF7 cells; assay: Growth inhibition test (MTS) on MCF7 cells; format: cell-based; conditions: Homo sapiens, MCF7, 72 hours, read-out: MCF-7 ED50
Procedure: as §1, with “Two” for “Ten”, “breast adenocarcinoma MCF7” for “myelomonocytic, biphenotypic leukemia MV4-11”, “Corp.), and” for “Corp.)”, “DMEM” for “Iscove's MDM”

Chain of PIM-1 (P11309 whole entry): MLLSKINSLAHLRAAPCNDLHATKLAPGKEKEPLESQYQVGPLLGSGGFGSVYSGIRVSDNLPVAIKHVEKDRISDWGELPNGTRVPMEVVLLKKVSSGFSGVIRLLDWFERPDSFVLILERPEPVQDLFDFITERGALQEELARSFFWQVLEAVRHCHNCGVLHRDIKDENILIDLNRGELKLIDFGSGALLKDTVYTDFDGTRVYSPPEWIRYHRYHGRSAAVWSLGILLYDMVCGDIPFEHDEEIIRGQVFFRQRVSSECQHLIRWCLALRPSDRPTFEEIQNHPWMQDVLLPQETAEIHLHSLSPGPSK

Work on `N[C@@H]1CC=CC[C@H]1Nc1nc2c(Br)c(Br)c(Br)c(Br)c2[nH]1` (relative stereo) [Compound 331, Trans N1-(4,5,6,7-tetrabromo-1H-benzo[d]imidazol-2-yl)cyclohex-4-ene-1,2-diamine] yielded an IC50 (PIM-1) of 14.8 nM and an IC50 [1] of 1360 nM.
Molecule `Brc1c(Br)c(Br)c2[nH]c(N3CCCC3)nc2c1Br` [Compound 18, 4,5,6,7-tetrabromo-2-(pyrrolidin-1-yl)-1H-benzo[d]imidazole] has an IC50 (PIM-1) of 13.3 nM and an IC50 [1] of 7680 nM.
With `Brc1c(Br)c(Br)c2[nH]c(Nc3ccncc3)nc2c1Br` [Compound 28, 4,5,6,7-tetrabromo-N-(pyridin-4-yl)-1H-benzo[d]imidazol-2-amine] the IC50 (PIM-1) was 37 nM.
For `Brc1c(Br)c(Br)c2[nH]c(NCCCN3CCCCC3)nc2c1Br` [Compound 59, 4,5,6,7-tetrabromo-N-(3-(piperidin-1-yl)propyl)-1H-benzo[d]imidazol-2-amine], the IC50 (PIM-1) was 50.8 nM and the IC50 [2] was 3600 nM.
`NCCCCNc1nc2c(Br)c(Br)c(Br)c(Br)c2[nH]1` [Compound 61, N-(4-aminobutyl)-4,5,6,7-tetrabromo-1H-benzo[d]imidazol-2-amine] showed an IC50 [3] of 8330 nM, an IC50 (PIM-1) of 8.85 nM and an IC50 [2] of 7350 nM.
`Brc1c(Br)c(Br)c2[nH]c(NCC3CCNCC3)nc2c1Br` [Compound 67, 4,5,6,7-tetrabromo-N-((piperidin-4-yl)methyl)-1H-benzo[d]imidazol-2-amine] was tested, and the IC50 (PIM-1) was 65.2 nM.
With `Brc1c(Br)c(Br)c2[nH]c(Nc3ccccc3)nc2c1Br` [Compound 79, 4,5,6,7-tetrabromo-N-phenyl-1H-benzo[d]imidazol-2-amine] the IC50 (PIM-1) was 68.2 nM and the IC50 [2] was 6520 nM.
Work on `Brc1c(Br)c(Br)c2[nH]c(NCc3ccccc3)nc2c1Br` [Compound 82, N-benzyl-4,5,6,7-tetrabromo-1H-benzo[d]imidazol-2-amine] yielded an IC50 (PIM-1) of 200 nM.
With `CN(C)CCCN(Cc1ccccc1)c1nc2c(Br)c(Br)c(Br)c(Br)c2[nH]1` [Compound 85, N-benzyl-4,5,6,7-tetrabromo-N-(3-(dimethylamino)propyl)-1H-benzo[d]imidazol-2-amine] the IC50 [3] was 5840 nM, the IC50 (PIM-1) was 65.3 nM and the IC50 [2] was 2840 nM. For the same molecule, the IC50 [1] was 2660 nM and the IC50 [4] was 4120 nM.
`Nc1ccc(Nc2nc3c(Br)c(Br)c(Br)c(Br)c3[nH]2)cc1` [Compound 86, N1-(4,5,6,7-tetrabromo-1H-benzo[d]imidazol-2-yl)benzene-1,4-diamine] showed an IC50 (PIM-1) of 66 nM.
Molecule `NCC(O)CNc1nc2c(Br)c(Br)c(Br)c(Br)c2[nH]1` (stereo not shown) [Compound 90, 1-(4,5,6,7-tetrabromo-1H-benzo[d]imidazol-2-ylamino)-3-aminopropan-2-ol] has an IC50 [3] of 6520 nM, an IC50 (PIM-1) of 13.1 nM and an IC50 [2] of 3980 nM.
Molecule `CN(C)CCN(Cc1ccccc1)c1nc2c(Br)c(Br)c(Br)c(Br)c2n1Cc1ccccc1` [Compound 95, N,1-dibenzyl-4,5,6,7-tetrabromo-N-(2-(dimethylamino)ethyl)-1H-benzo[d]imidazol-2-amine] has an IC50 (PIM-1) of 75.7 nM and an IC50 [1] of 7610 nM.
With `CN(Cc1ccccc1)c1nc2c(Br)c(Br)c(Br)c(Br)c2[nH]1` [Compound 117, N-benzyl-4,5,6,7-tetrabromo-N-methyl-1H-benzo[d]imidazol-2-amine] the IC50 (PIM-1) was 85.6 nM and the IC50 [1] was 9400 nM.
`Brc1c(Br)c(Br)c2[nH]c(NCCc3ccccn3)nc2c1Br` [Compound 128, 4,5,6,7-tetrabromo-N-(2-(pyridin-2-yl)ethyl)-1H-benzo[d]imidazol-2-amine] showed an IC50 (PIM-1) of 71.3 nM and an IC50 [1] of 3830 nM.
`Cc1c(Nc2nc3c(Br)c(Br)c(Br)c(Br)c3[nH]2)cccc1-c1nncn1C` [Compound 248, 4,5,6,7-tetrabromo-N-(2-methyl-3-(4-methyl-4H-1,2,4-triazol-3-yl)phenyl)-1H-benzo[d]imidazol-2-amine] showed an IC50 (PIM-1) of 48.9 nM.
With `Cc1nccn1CC1CCCN(c2nc3c(Br)c(Br)c(Br)c(Br)c3[nH]2)C1` (stereo not shown) [Compound 262, 4,5,6,7-tetrabromo-2-(3-((2-methyl-1H-imidazol-1-yl)methyl)piperidin-1-yl)-1H-benzo[d]imidazole] the IC50 (PIM-1) was 61.4 nM.
`Brc1c(Br)c(Br)c2[nH]c(N3CCCC(CN4CCN(c5ccccn5)CC4)C3)nc2c1Br` (stereo not shown) [Compound 266, 4,5,6,7-tetrabromo-2-(3-((4-(pyridin-2-yl)piperazin-1-yl)methyl)piperidin-1-yl)-1H-benzo[d]imidazole] was tested, and the IC50 (PIM-1) was 294 nM, the IC50 [2] was 2480 nM and the IC50 [1] was 2550 nM.
Work on `Oc1ncc(Nc2nc3c(Br)c(Br)c(Br)c(Br)c3[nH]2)c(O)n1` [Compound 303, 5-(4,5,6,7-tetrabromo-1H-benzo[d]imidazol-2-ylamino)pyrimidine-2,4-diol] yielded an IC50 (PIM-1) of 128 nM.
`OC1CCCCC1Nc1nc2c(Br)c(Br)c(Br)c(Br)c2[nH]1` (stereo not shown) [Compound 334, 2-(4,5,6,7-tetrabromo-1H-benzo[d]imidazol-2-ylamino)cyclohexanol] was tested, and the IC50 (PIM-1) was 14.1 nM and the IC50 [1] was 5340 nM.
Molecule `CN(c1ccccc1)c1nc2c(Br)c(Br)c(Br)c(Br)c2[nH]1` [Compound 342, 4,5,6,7-tetrabromo-N-methyl-N-phenyl-1H-benzo[d]imidazol-2-amine] has an IC50 (PIM-1) of 28.6 nM.
Molecule `CN(C)CCN1CCN(c2nc3c(Br)c(Br)c(Br)c(Br)c3[nH]2)CC1` [Compound 343, 2-(4-(4,5,6,7-tetrabromo-1H-benzo[d]imidazol-2-yl)piperazin-1-yl)-N,N-dimethylethanamine] has an IC50 (PIM-1) of 36.8 nM.
`Brc1c(Br)c(Br)c2[nH]c(N3CCN4CCC3CC4)nc2c1Br` [Compound 350, 2-(4,5,6,7-tetrabromo-1H-benzo[d]imidazol-2-yl)-2,5-diaza-bicyclo[3.2.2]nonane] was tested, and the IC50 [3] was 8480 nM, the IC50 (PIM-1) was 32.7 nM and the IC50 [2] was 5550 nM. The IC50 [1] was 5520 nM and the IC50 [4] was 6550 nM.
Work on `Brc1c(Br)c(Br)c2[nH]c(N3CCNc4ccccc43)nc2c1Br` [Compound 367, 1-(4,5,6,7-tetrabromo-1H-benzo[d]imidazol-2-yl)-1,2′,3,4-tetrahydroquinoxaline] yielded an IC50 (PIM-1) of 39.5 nM and an IC50 [1] of 3770 nM.
